Legend:
RUP3 [1] = target: T1, RUP3 (Mus musculus, UniProt Q7TQP3); experiment: Oral glucose tolerance test (oGTT) in mice; assay type: in vivo; settings: for Mean % Inhibition of Glucose Excursion: male C57bl/6J mice, dextrose 3 g/Kg oral; for Blood glucose after glucose challenge: male C57bl/6J mice, 1, 3 or 10 mg/Kg p.o.
T1 construct: randomly grouped (n=5) to receive a RUP3 agonist (either Compound B3 or B124); from tissue; host or cells: whole animal (male C57bl/6J mice), in vivo
T1 sequence (Q7TQP3 1-335): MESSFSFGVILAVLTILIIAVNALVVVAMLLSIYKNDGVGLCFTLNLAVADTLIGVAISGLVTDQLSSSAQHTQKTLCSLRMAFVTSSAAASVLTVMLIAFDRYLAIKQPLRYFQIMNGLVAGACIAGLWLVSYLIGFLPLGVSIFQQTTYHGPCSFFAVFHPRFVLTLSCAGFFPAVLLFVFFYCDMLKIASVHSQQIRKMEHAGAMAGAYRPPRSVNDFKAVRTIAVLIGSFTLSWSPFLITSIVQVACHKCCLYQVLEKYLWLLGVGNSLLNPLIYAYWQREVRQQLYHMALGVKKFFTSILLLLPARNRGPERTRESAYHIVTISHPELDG
Description: Male C57bl/6J mice at approximately 8 weeks of age were fasted for 18 hours and randomly grouped (n=5) to receive a RUP3 agonist (either Compound B3 or B124) at 1, 3 or 10 mg/Kg. Compounds were delivered orally via a gavage needle (p.o., volume 10 mL/Kg). At time 0, levels of blood glucose were assessed using a glucometer (Elite XL, Bayer), and mice were administered either vehicle (20% hydroxypropyl-beta-cyclodextrin) or test compound. Thirty minutes after administration of test compound, levels of blood glucose were again assessed, and mice were administered dextrose orally at a dose of 3 g/Kg. Blood glucose measurements were then taken 20 min, 40 min, 60 min and 120 min after this time.

RUP3 [2] = target: T2, RUP3 (Homo sapiens, UniProt Q8TDV5); experiment: Melanophore dispersion assay, RUP3 dose responses; assay type: cell-based; settings: melanophores transfected with RUP3 expression vector
T2 construct: expressed in transfected cells; host or cells: melanophores (cultured per Potenza and Lerner 1992), electroporated with the RUP3 expression vector (pCMV)
T2 sequence (Q8TDV5 1-335): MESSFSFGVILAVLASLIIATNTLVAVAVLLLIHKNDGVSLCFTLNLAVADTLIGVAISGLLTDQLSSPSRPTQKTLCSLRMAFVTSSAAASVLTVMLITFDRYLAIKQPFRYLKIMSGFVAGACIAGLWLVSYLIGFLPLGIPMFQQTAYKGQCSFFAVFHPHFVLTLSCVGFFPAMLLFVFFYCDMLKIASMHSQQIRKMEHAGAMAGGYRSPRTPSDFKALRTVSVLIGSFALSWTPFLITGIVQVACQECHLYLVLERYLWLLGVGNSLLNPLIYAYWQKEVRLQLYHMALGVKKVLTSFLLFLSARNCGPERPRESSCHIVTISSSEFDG
Description: Melanophores are maintained in culture as reported by Potenza, M. N. and Lerner, M. R., in Pigment Cell Research, Vol. 5, 372-378, 1992 and transfected with the RUP3 expression vector (pCMV) using electroporation. Following electroporation, the transfected cells are plated into 96 well plates for the assay. The cells are then allowed to grow for 48 hours in order to both recover from the electroporation procedure and attain maximal receptor expression levels.
On the assay day, the growth medium on the cells is replaced with serum-free buffer containing 10 nM melatonin. The melatonin acts via an endogenous Gi-coupled GPCR in the melanophores to lower intracellular cAMP levels. In response to lowered cAMP levels, the melanophores translocate their pigment to the center of the cell. The net effect of this is a significant decrease in the absorbance reading of the cell monolayer in the well, measured at […].
After a 1-hour incubation in melatonin, the cells become completely pigment-aggregated. At this point a baseline absorbance reading is collected. Serial dilutions of test compounds are then added to the plate and compounds that stimulate RUP3 produce increases in intracellular cAMP levels. In response to these increased cAMP levels, the melanophores translocate their pigment back into the cell periphery. After one hour, stimulated cells are fully pigment-dispersed. The cell monolayer in the dispersed state absorbs much more light in the 600-650 nm range. The measured increase in absorbance compared to the baseline reading allows one to quantitate the degree of receptor stimulation and plot a dose-response curve.
The compounds in the above examples were screened using the melanophore dispersion assay, as described above.

Row | SMILES | Mean % Inhibition of Glucose Excursion (RUP3 [1]; 1 mg/Kg p.o.) | Mean % Inhibition of Glucose Excursion (RUP3 [1]; 3 mg/Kg p.o.) | Mean % Inhibition of Glucose Excursion (RUP3 [1]; 10 mg/Kg p.o.) | Blood glucose after glucose challenge (RUP3 [1]) | EC50 (RUP3 [2])
1 | CC(C)OC(=O)N1CCC(Oc2cc(Nc3ccc(S(C)(=O)=O)cc3F)ncn2)CC1 [Compound B3, 4-[6-(2-Fluoro-4-methanesulfonyl-phenylamino)-pyrimidin-4-yloxy]-piperidine-1-carboxylic acid isopropyl ester] | 14.83% | 22.03% | 39.31% | lowered blood glucose in a dose-dependent manner | –
2 | Cc1ccc(Nc2cc(OC3CCN(C(=O)OC(C)(C)C)CC3)ncn2)cc1F [Compound B16, 4-[6-(3-Fluoro-4-methyl-phenylamino)-pyrimidin-4-yloxy]-piperidine-1-carboxylic acid tert-butyl ester] | – | – | – | – | 62 nM
3 | COc1ccc(Nc2cc(OC3CCN(C(=O)OC(C)(C)C)CC3)ncn2)cc1F [Compound B21, 4-[6-(3-Fluoro-4-methoxy-phenylamino)-pyrimidin-4-yloxy]-piperidine-1-carboxylic acid tert-butyl ester] | – | – | – | – | 128 nM
4 | CCCNc1ccc(Nc2cc(OC3CCN(C(=O)OC(C)C)CC3)ncn2)c(C)c1 [Compound B124, 4-[6-(2-Methyl-4-propylamino-phenylamino)-pyrimidin-4-yloxy]-piperidine-1-carboxylic acid isopropyl ester] | 0% | 5.49% | 21.94% | lowered blood glucose in a dose-dependent manner | –
5 | CC(C)OC(=O)N1CCC(Oc2cc(Oc3ccc(Br)cc3F)ncn2)CC1 [Compound B143, 4-[6-(4-Bromo-2-fluoro-phenoxy)-pyrimidin-4-yloxy]-piperidine-1-carboxylic acidisopropyl ester] | – | – | – | – | 48 nM

Source: patent US20090036434A1, “Substituted aryl and heteroaryl derivatives as modulators of metabolism and the prophylaxis and treatment of disorders related thereto” (Arena Pharmaceuticals, Inc., priority 2004, published 2009)
